The text below walks through data of PubChem BioAssay AID328 (DTP/NCI, 2004).

This test deals with BDF1 mice, P388 leukemia ip, median survival T/C. Nature of the test: NCI In Vivo Anticancer Drug Screen. Data for tumor model P388 Leukemia (intraperitoneal) in B6D2F1 (BDF1) mice. Particulars: endpoint: median survival time, higher = longer survival. The method, boiled down:
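Read-out is survival of treated animals expressed relative to the vehicle group, as a T/C ratio.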

[1] abbreviates: dose: 200.0 mg/kg/injection, schedule: Q01DX009 (ip), vehicle: Klucel (hydroxypropylcellulose) (HPC).
Setting [2] is: dose: 100.0 mg/kg/injection, schedule: Q04DX003 (ip), vehicle: saline with Tween-80.
The mark [3] stands for this setting: dose: 200.0 mg/kg/injection, schedule: Q04DX003 (ip), vehicle: saline with Tween-80.
Where [4] appears, read: dose: 100.0 mg/kg/injection, schedule: Q01DX009 (ip), vehicle: saline with Tween-80.

Values joined by “and” are separate entries in the source; they are usually repeats but may differ in a detail not shown here. Identical values can stand only once. Toxic doses and inconclusive results are not listed. Starred links: 1 amine or outer side, 2 acyl side, 3 side chain; linkers in the order of their positions; H or OH if unused. Positions of bridges follow the written chain, without caps; N, C: chain ends. Non-standard residues stand in square brackets, D forms with d. Residues, ends and D or L forms follow the SMILES beside them. Chains are numbered I, II in the order given. Actinocin(1to9) = Cc1c2oc3c(C)ccc(C(=O)[*:2])c3nc-2c(C(=O)[*:1])c(N)c1=O; NMeV = CN[CH](C(=O)O)C(C)C; Sar = CNCC(=O)O

As to `CCC(C)C1NC(=O)C(NC(=O)c2c3nc4c(C(=O)NC5C(=O)NC(C(C)CC)C(=O)N6CCCC6C(=O)N(C)CC(=O)N(C)C(C(C)C)C(=O)OC5C)ccc(C)c4oc-3c(C)c(=O)c2N)C(C)OC(=O)C(C(C)C)N(C)C(=O)CN(C)C(=O)C2CCCN2C1=O` (stereo not given) (I: TIP[Sar][NMeV] / II: TIP[Sar][NMeV]; ester I:1-I:C, II:1-II:C; linker I:N-II:N via Actinocin(1to9); configuration not given here), the T/C was 245 % of control (dose: 0.05 mg/kg/injection, schedule: Q01DX010 (ip), vehicle: saline); 300 % of control (dose: 0.1 mg/kg/injection, schedule: Q01DX010 (ip), vehicle: saline); 162 % of control (dose: 0.2 mg/kg/injection, schedule: Q01DX001 (ip), vehicle: water); 157 % of control (dose: 0.4 mg/kg/injection, schedule: Q01DX001 (ip), vehicle: water); 166 % of control (dose: 0.8 mg/kg/injection, schedule: Q01DX001 (ip), vehicle: water); 86 % of control (dose: 1.6 mg/kg/injection, schedule: Q01DX001 (ip), vehicle: water). In addition, the T/C is, setting by setting: (dose: 3.1 micrograms/kg/injection, schedule: Q01DX001 (ip), vehicle: saline) 113 % of control; (dose: 3.1 micrograms/kg/injection, schedule: Q01DX010 (ip), vehicle: saline) 180 % of control; (dose: 3.1 micrograms/kg/injection, schedule: Q04DX003 (ip), vehicle: saline) 109 % of control; (dose: 6.2 micrograms/kg/injection, schedule: Q01DX010 (ip), vehicle: saline) 175 % of control; (dose: 6.3 micrograms/kg/injection, schedule: Q01DX001 (ip), vehicle: saline) 118 % of control; (dose: 6.3 micrograms/kg/injection, schedule: Q04DX003 (ip), vehicle: saline) 118 % of control. Besides, the T/C was 122 % of control (dose: 12.5 micrograms/kg/injection, schedule: Q01DX001 (ip), vehicle: saline); 170 % of control (dose: 12.5 micrograms/kg/injection, schedule: Q01DX009 (ip), vehicle: water); 185 % of control (dose: 12.5 micrograms/kg/injection, schedule: Q01DX010 (ip), vehicle: saline); 122 % of control (dose: 25.0 micrograms/kg/injection, schedule: Q01DX001 (ip), vehicle: saline); 189 % of control (dose: 25.0 micrograms/kg/injection, schedule: Q01DX009 (ip), vehicle: water); 220 % of control (dose: 25.0 micrograms/kg/injection, schedule: Q01DX010 (ip), vehicle: saline). Further, the T/C (dose: 25.0 micrograms/kg/injection, schedule: Q04DX003 (ip), vehicle: saline) is 150 % of control; the T/C (dose: 50.0 micrograms/kg/injection, schedule: Q01DX009 (ip), vehicle: water) was 200 % of control; the T/C (dose: 50.0 micrograms/kg/injection, schedule: Q01DX010 (ip), vehicle: saline) was 215 % of control; the T/C (dose: 50.0 micrograms/kg/injection, schedule: Q04DX003 (ip), vehicle: saline) is 181 % of control; the T/C (dose: 75.0 micrograms/kg/injection, schedule: Q04DX003 (ip), vehicle: water) is 162 % of control; the T/C (dose: 100.0 micrograms/kg/injection, schedule: Q01DX009 (ip), vehicle: water) was 206 % of control. In addition, the T/C is 295 % of control (dose: 100.0 micrograms/kg/injection, schedule: Q01DX010 (ip), vehicle: saline); 190 % of control (dose: 100.0 micrograms/kg/injection, schedule: Q04DX003 (ip), vehicle: saline); 172 % of control (dose: 150.0 micrograms/kg/injection, schedule: Q04DX003 (ip), vehicle: water); 177 % of control (dose: 200.0 micrograms/kg/injection, schedule: Q01DX001 (ip), vehicle: saline); 110 % of control (dose: 200.0 micrograms/kg/injection, schedule: Q01DX010 (ip), vehicle: saline); 200 % of control (dose: 200.0 micrograms/kg/injection, schedule: Q04DX003 (ip), vehicle: saline). Also, the T/C runs as follows: (dose: 300.0 micrograms/kg/injection, schedule: Q04DX003 (ip), vehicle: water) 209 % of control; (dose: 400.0 micrograms/kg/injection, schedule: Q01DX001 (ip), vehicle: saline) 190 % of control; (dose: 400.0 micrograms/kg/injection, schedule: Q04DX003 (ip), vehicle: saline) 231 % of control; (dose: 600.0 micrograms/kg/injection, schedule: Q04DX003 (ip), vehicle: water) 224 % of control.
As to `Cc1ccc(S(=O)(=O)N(CCO)CC(C)O)cc1` (stereo not given), the T/C was 100 % of control (dose: 100.0 mg/kg/injection, schedule: Q01DX009 (ip), vehicle: Klucel (hydroxypropylcellulose) (HPC)); 100 % of control under setting [1]; 100 % of control (dose: 400.0 mg/kg/injection, schedule: Q01DX009 (ip), vehicle: Klucel (hydroxypropylcellulose) (HPC)).
In the case of `NNC(=S)SCc1ccccc1`, the T/C by setting is: (dose: 15.0 mg/kg/injection, schedule: Q01DX009 (ip), vehicle: saline with Tween-80) 106 % of control; (dose: 30.0 mg/kg/injection, schedule: Q01DX009 (ip), vehicle: saline with Tween-80) 98 % of control.
As to `c1ccc(OCCC[P+](c2ccccc2)(c2ccccc2)c2ccccc2)cc1`, the T/C is, setting by setting: (dose: 0.78 mg/kg/injection, schedule: Q01DX010 (ip), vehicle: saline) 90 % of control; (dose: 1.56 mg/kg/injection, schedule: Q01DX010 (ip), vehicle: saline) 100 % of control; (dose: 3.13 mg/kg/injection, schedule: Q01DX010 (ip), vehicle: saline) 109 % of control; (dose: 6.25 mg/kg/injection, schedule: Q01DX010 (ip), vehicle: saline) 118 % of control; (dose: 12.5 mg/kg/injection, schedule: Q01DX010 (ip), vehicle: carboxymethylcellulose (CMC)) 100 % of control.
For the compound `Cc1ccc(NC(=O)Nc2ccccc2F)cc1NC(=O)Nc1ccccc1F`, the T/C reads like this: under setting [2], 104 % of control; under setting [3], 109 % of control; (dose: 400.0 mg/kg/injection, schedule: Q04DX003 (ip), vehicle: saline with Tween-80) 109 % of control.
In the case of `CCCCC(CC)COC(OCC(CC)CCCC)C(OCC(CC)CCCC)OCC(CC)CCCC` (stereo not given), the T/C was 100 % of control under setting [4]; 100 % of control (dose: 200.0 mg/kg/injection, schedule: Q01DX009 (ip), vehicle: saline with Tween-80); 90 % of control (dose: 400.0 mg/kg/injection, schedule: Q01DX009 (ip), vehicle: saline with Tween-80).
For `O=C(Nc1ccc(C2=NCCN2)cc1)c1cccc(C(=O)Nc2ccc(C3=NCCN3)cc2)c1`, the T/C (dose: 8.0 mg/kg/injection, schedule: Q01DX010 (ip), vehicle: saline) is 160 % of control; the T/C (dose: 16.0 mg/kg/injection, schedule: Q01DX010 (ip), vehicle: saline) is 163 % of control and 180 % of control; the T/C (dose: 32.0 mg/kg/injection, schedule: Q01DX010 (ip), vehicle: saline) was 195 % of control and 200 % of control; the T/C (dose: 64.0 mg/kg/injection, schedule: Q01DX010 (ip), vehicle: saline) was 235 % of control and 200 % of control.
In the case of `CCOC(C)C(/C=N/NC(N)=S)=NNC(N)=S` (stereo not given), the T/C reads like this: (dose: 25.0 mg/kg/injection, schedule: Q01DX009 (ip), vehicle: Klucel (hydroxypropylcellulose) (HPC)) 110 % of control; (dose: 50.0 mg/kg/injection, schedule: Q01DX009 (ip), vehicle: Klucel (hydroxypropylcellulose) (HPC)) 115 % of control; (dose: 50.0 mg/kg/injection, schedule: Q01DX009 (ip), vehicle: saline with Tween-80) 107 % of control; under setting [4], 96 % of control; (dose: 100.0 mg/kg/injection, schedule: Q04DX003 (ip), vehicle: Klucel (hydroxypropylcellulose) (HPC)) 109 % of control; under setting [2], 86 % of control. The T/C (dose: 150.0 mg/kg/injection, schedule: Q01DX009 (ip), vehicle: Klucel (hydroxypropylcellulose) (HPC)) is 110 % of control; the T/C under setting [1] was 122 % of control; the T/C (dose: 200.0 mg/kg/injection, schedule: Q04DX003 (ip), vehicle: Klucel (hydroxypropylcellulose) (HPC)) was 100 % of control; the T/C under setting [3] was 91 % of control; the T/C (dose: 400.0 mg/kg/injection, schedule: Q04DX003 (ip), vehicle: Klucel (hydroxypropylcellulose) (HPC)) is 104 % of control.
